Results from patent US9144229B2, “Tissue specific expression of antibodies in chickens” (Synageva BioPharma Corp., priority 2002, dated 2015).

Test system: chicken embryonic stem cells
Assay: Titration kill curve of chicken ES cells under puromycin or neomycin selection
Format: cell-based
Design: key to Morphology of cES cells: ES cells are present.; ES cells are differentiated.; gone: no morphologically recognizable cells are present
Description: In a preferred embodiment, the concentration of puromycin required for selecting transfected cells is calculated as a titration kill curve. Titration kill curves for chicken embryonic stem cells are established by exposing cells in culture to puromycin concentrations varying from 0.0 to 1.0 μg/ml for 10 days (Table 7) and neomycin concentrations varying from 0.0 to 200 μg/ml (Table 8). The medium is changed every 2 days and fresh puromycin or neomycin is added. […] Puromycin concentrations of 0.3-1.0 μg/ml are used for selection of the transfected cultures. Neomycin concentrations over 40 μg/ml eliminated all cES cells within 7 days (Table 8).

SMILES: COc1ccc(C[C@H](N)C(=O)N[C@H]2[C@@H](O)[C@H](n3cnc4c(N(C)C)ncnc43)O[C@@H]2CO)cc1 [puromycin]
- presence of ES cells (0.3 μg/ml puromycin, 3 changes of medium over a six day period): absent from all wells
- Morphology of cES cells (puromycin 0.1 μg/ml, day 1): ES
- Morphology of cES cells (puromycin 0.1 μg/ml, day 2): ES
- Morphology of cES cells (puromycin 0.1 μg/ml, day 3): ES
- Morphology of cES cells (puromycin 0.1 μg/ml, day 4): ES
- Morphology of cES cells (puromycin 0.1 μg/ml, day 5): ES
- Morphology of cES cells (puromycin 0.1 μg/ml, day 6): ES
- Morphology of cES cells (puromycin 0.1 μg/ml, day 7): ES
- Morphology of cES cells (puromycin 0.1 μg/ml, day 8): ES
- Morphology of cES cells (puromycin 0.1 μg/ml, day 9): ES
- Morphology of cES cells (puromycin 0.1 μg/ml, day 10): ES
- Morphology of cES cells (puromycin 0.2 μg/ml, day 1): ES
- Morphology of cES cells (puromycin 0.2 μg/ml, day 2): ES
- Morphology of cES cells (puromycin 0.2 μg/ml, day 3): ES
- Morphology of cES cells (puromycin 0.2 μg/ml, day 4): ES
- Morphology of cES cells (puromycin 0.2 μg/ml, day 5): ES
- Morphology of cES cells (puromycin 0.2 μg/ml, day 6): ES
- Morphology of cES cells (puromycin 0.2 μg/ml, day 7): ES
- Morphology of cES cells (puromycin 0.2 μg/ml, day 8): ES
- Morphology of cES cells (puromycin 0.2 μg/ml, day 9): ES
- Morphology of cES cells (puromycin 0.2 μg/ml, day 10): ES
- Morphology of cES cells (puromycin 0.25 μg/ml, day 1): ES
- Morphology of cES cells (puromycin 0.25 μg/ml, day 2): ES
- Morphology of cES cells (puromycin 0.25 μg/ml, day 3): ES
- Morphology of cES cells (puromycin 0.25 μg/ml, day 4): ES
- Morphology of cES cells (puromycin 0.25 μg/ml, day 5): ES
- Morphology of cES cells (puromycin 0.25 μg/ml, day 6): diff
- Morphology of cES cells (puromycin 0.25 μg/ml, day 7): diff
- Morphology of cES cells (puromycin 0.25 μg/ml, day 8): diff/
- Morphology of cES cells (puromycin 0.25 μg/ml, day 9): diff/
- Morphology of cES cells (puromycin 0.25 μg/ml, day 10): diff/
- Morphology of cES cells (puromycin 0.3 μg/ml, day 1): ES
- Morphology of cES cells (puromycin 0.3 μg/ml, day 2): ES
- Morphology of cES cells (puromycin 0.3 μg/ml, day 3): diff
- Morphology of cES cells (puromycin 0.3 μg/ml, day 4): diff/
- Morphology of cES cells (puromycin 0.3 μg/ml, day 5): diff/
- Morphology of cES cells (puromycin 0.3 μg/ml, day 6): gone
- Morphology of cES cells (puromycin 0.3 μg/ml, day 7): gone
- Morphology of cES cells (puromycin 0.3 μg/ml, day 8): gone
- Morphology of cES cells (puromycin 0.3 μg/ml, day 9): gone
- Morphology of cES cells (puromycin 0.3 μg/ml, day 10): gone
- Morphology of cES cells (puromycin 0.4 μg/ml, day 1): ES
- Morphology of cES cells (puromycin 0.4 μg/ml, day 2): diff
- Morphology of cES cells (puromycin 0.4 μg/ml, day 3): gone
- Morphology of cES cells (puromycin 0.4 μg/ml, day 4): gone
- Morphology of cES cells (puromycin 0.4 μg/ml, day 5): gone
- Morphology of cES cells (puromycin 0.4 μg/ml, day 6): gone
- Morphology of cES cells (puromycin 0.4 μg/ml, day 7): gone
- Morphology of cES cells (puromycin 0.4 μg/ml, day 8): gone
- Morphology of cES cells (puromycin 0.4 μg/ml, day 9): gone
- Morphology of cES cells (puromycin 0.4 μg/ml, day 10): gone
- Morphology of cES cells (puromycin 0.5 μg/ml, day 1): diff
- Morphology of cES cells (puromycin 0.5 μg/ml, day 2): gone
- Morphology of cES cells (puromycin 0.5 μg/ml, day 3): Gone
- Morphology of cES cells (puromycin 0.5 μg/ml, day 4): gone
- Morphology of cES cells (puromycin 0.5 μg/ml, day 5): gone
- Morphology of cES cells (puromycin 0.5 μg/ml, day 6): gone
- Morphology of cES cells (puromycin 0.5 μg/ml, day 7): gone
- Morphology of cES cells (puromycin 0.5 μg/ml, day 8): gone
- Morphology of cES cells (puromycin 0.5 μg/ml, day 9): gone
- Morphology of cES cells (puromycin 0.5 μg/ml, day 10): gone
- Morphology of cES cells (puromycin 0.6 μg/ml, day 1): diff
- Morphology of cES cells (puromycin 0.6 μg/ml, day 2): gone
- Morphology of cES cells (puromycin 0.6 μg/ml, day 3): gone
- Morphology of cES cells (puromycin 0.6 μg/ml, day 4): gone
- Morphology of cES cells (puromycin 0.6 μg/ml, day 5): gone
- Morphology of cES cells (puromycin 0.6 μg/ml, day 6): gone
- Morphology of cES cells (puromycin 0.6 μg/ml, day 7): gone
- Morphology of cES cells (puromycin 0.6 μg/ml, day 8): gone
- Morphology of cES cells (puromycin 0.6 μg/ml, day 9): gone
- Morphology of cES cells (puromycin 0.6 μg/ml, day 10): gone
- Morphology of cES cells (puromycin 0.7 μg/ml, day 1): diff
- Morphology of cES cells (puromycin 0.7 μg/ml, day 2): gone
- Morphology of cES cells (puromycin 0.7 μg/ml, day 3): gone
- Morphology of cES cells (puromycin 0.7 μg/ml, day 4): gone
- Morphology of cES cells (puromycin 0.7 μg/ml, day 5): gone
- Morphology of cES cells (puromycin 0.7 μg/ml, day 6): gone
- Morphology of cES cells (puromycin 0.7 μg/ml, day 7): gone
- Morphology of cES cells (puromycin 0.7 μg/ml, day 8): gone
- Morphology of cES cells (puromycin 0.7 μg/ml, day 9): gone
- Morphology of cES cells (puromycin 0.7 μg/ml, day 10): gone
- Morphology of cES cells (puromycin 0.8 μg/ml, day 1): gone
- Morphology of cES cells (puromycin 0.8 μg/ml, day 2): gone
- Morphology of cES cells (puromycin 0.8 μg/ml, day 3): gone
- Morphology of cES cells (puromycin 0.8 μg/ml, day 4): gone
- Morphology of cES cells (puromycin 0.8 μg/ml, day 5): gone
- Morphology of cES cells (puromycin 0.8 μg/ml, day 6): gone
- Morphology of cES cells (puromycin 0.8 μg/ml, day 7): gone
- Morphology of cES cells (puromycin 0.8 μg/ml, day 8): gone
- Morphology of cES cells (puromycin 0.8 μg/ml, day 9): gone
- Morphology of cES cells (puromycin 0.8 μg/ml, day 10): gone
